Key:
U-87 MG = assay: Antiproliferative activity against human U87MG cells after 4 days by Celltiter-Glo luminescence cell viability assay; format: functional, cell-based, U-87MG ATCC; conditions: 96 h
[1] = Effective permeability of the compound measured after 5 hrs by PAMPA; format: ADME; conditions: read-out: Peff
[2] = target: Phosphatidylinositol 4,5-bisphosphate 3-kinase catalytic subunit gamma isoform (Homo sapiens, UniProt P48736); assay: Inhibition of PI3Kgamma (unknown origin) using PIP2 as substrate measured after 1 hr by Kinase-Glo luminescence assay
Phosphatidylinositol 4,5-bisphosphate 3-kinase catalytic subunit gamma isoform, sequence (P48736 whole entry, canonical isoform): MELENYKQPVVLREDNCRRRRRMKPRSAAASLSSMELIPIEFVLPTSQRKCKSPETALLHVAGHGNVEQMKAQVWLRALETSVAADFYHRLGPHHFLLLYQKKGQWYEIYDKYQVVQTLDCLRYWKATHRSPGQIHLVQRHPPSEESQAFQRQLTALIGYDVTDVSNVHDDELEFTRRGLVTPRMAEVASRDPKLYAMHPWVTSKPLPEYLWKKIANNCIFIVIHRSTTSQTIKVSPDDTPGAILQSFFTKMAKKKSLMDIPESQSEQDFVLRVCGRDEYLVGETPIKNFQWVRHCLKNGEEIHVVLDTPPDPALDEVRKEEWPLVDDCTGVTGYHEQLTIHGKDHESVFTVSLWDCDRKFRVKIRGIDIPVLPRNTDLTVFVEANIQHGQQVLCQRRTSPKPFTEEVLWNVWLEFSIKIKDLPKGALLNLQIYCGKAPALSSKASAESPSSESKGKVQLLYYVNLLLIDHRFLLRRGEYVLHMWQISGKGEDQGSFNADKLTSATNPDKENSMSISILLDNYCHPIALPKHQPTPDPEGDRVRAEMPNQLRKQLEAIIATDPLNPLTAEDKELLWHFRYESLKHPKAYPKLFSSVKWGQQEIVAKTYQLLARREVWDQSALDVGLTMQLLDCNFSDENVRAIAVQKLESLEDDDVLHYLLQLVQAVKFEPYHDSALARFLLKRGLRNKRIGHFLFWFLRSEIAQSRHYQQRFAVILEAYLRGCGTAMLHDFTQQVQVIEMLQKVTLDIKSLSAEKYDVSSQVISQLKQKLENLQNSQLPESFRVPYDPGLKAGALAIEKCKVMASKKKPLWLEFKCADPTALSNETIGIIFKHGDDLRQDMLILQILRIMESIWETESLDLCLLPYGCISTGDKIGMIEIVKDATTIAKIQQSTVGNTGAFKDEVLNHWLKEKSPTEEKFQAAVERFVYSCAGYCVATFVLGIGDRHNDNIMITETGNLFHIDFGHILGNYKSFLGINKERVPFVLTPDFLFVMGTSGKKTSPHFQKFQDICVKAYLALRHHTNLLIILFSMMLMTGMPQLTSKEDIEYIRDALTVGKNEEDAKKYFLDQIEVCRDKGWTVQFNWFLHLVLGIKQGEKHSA

| IC50 (U-87 MG) [nM] | Papp at 5 h [1] [×10⁻⁶ cm/s] | IC50 [2] [nM] | SMILES |
| --- | --- | --- | --- |
| 340 | – | – | COc1ccc(-c2cc3c(C)nc(N)nc3n([C@H]3CC[C@H](OCCO)CC3)c2=O)cn1 [PF-04691502] |
| – | 4.8 | – | COc1ncc(-c2cc3c(C)nc(N)nc3s2)cc1NS(=O)(=O)c1ccc(F)cc1F |
| – | 9.6 | 11 | COc1ncc(-c2cc3c(C)nc(NC(C)=O)nc3s2)cc1NS(=O)(=O)c1ccc(F)cc1F |
